Patent publication US20050220899A1, “Use of cisplatin in combination with folic acid for increasing cisplatin efficacy” (priority 2002, published 2005)

System: mesothelioma
Assay: Treatment of human mesothelioma patients with cisplatin with or without folic acid
Format: in vivo
Conditions: human patients exhibiting mesothelioma; 75-120 mg/m^2 of cisplatin

Question: For `N.N.[Cl][Pt][Cl]` [cisplatin, cis-diamminedichloroplatinum], which median survival time is on record?
Answer: 7.2 months

Question: And the response rate?
Answer: 8.5%
